Reference: US11667645B2, “Granzyme B directed imaging and therapy” (CytoSite Biopharma Inc., priority 2018, dated 2023)

Biological target: Granzyme B (human lymphocytes) (Homo sapiens (Human), UniProt P10144)
Assay: human Granzyme B biochemical assay
Details: Granzyme B (human lymphocytes) 5 nM, substrate Ac-IETD-AFC 200 μM, Cpd incubation with enzyme 30 mins, 22° C., read time 60 mins; read-out: IC50
Source text: The compounds of Formula I-VIII described above can be tested using the human Granzyme B biochemical assay provided below.
Materials: • 1. Granzyme B (human lymphocytes) Enzyme: Enzo Lifesciences, Cat #ALX-200-602-0010 • 2. Substrate (Ac-IETD-AFC): Enzo Lifesciences, Cat #ALX-260-110-M010 • 3. Standard inhibitor (Compound 20-Isomer3): Synthesized internally in TCG • 4. Dimethyl sulfoxide (DMSO): Sigma-Aldrich, Cat #41639 • 5. HEPES: Gibco, Cat #15630-080 • 6. Calcium chloride: Sigma-Aldrich, Cat #C-5080 • 7. Distilled water: Gibco, Cat #15230-162 • 8. Bovine serum albumin (BSA): Sigma-Aldrich, Cat #A3059 • 9. Black, clear bottom PDL plate (384 wells): Greiner bio-one, Cat #781946 • 10. Polypropylene plate (384 wells): Corning, Cat #3657 Assay Buffer Composition:
Compound Preparation: • 1. DMSO is added to the respective compound vial to make 10 mM Compound stock solution, which is stored at −20° C. • 2. 10 mM Compound stock solution is thawed and 1 mM DMSO stock solution is prepared by adding 45 μl of DMSO to 5 μl of 10 mM compound stock solution. • 3. 1 mM DMSO stock solution is serially diluted (3.16 fold) by adding 10 μl of 1 mM DMSO stock to 21.6 μl of DMSO and mixed well. 10 μl of the resulting solution is then added to 21.6 μl of DMSO and mixed well. This process is continued to create 11 dilution points for the assay standard inhibitor and 8 dilution points for test compounds in 384 well polypropylene plate. • 4. 2 μl of each dilution are dispensed in assay ready plate. • 5. Each well is then diluted 25 fold by adding 48 μl of assay buffer to 2 μl of compound in assay ready plate to make Compound working stock. Enzyme Preparation: • 1. Supplied Granzyme B (human lymphocytes) enzyme is reconstituted to 1 mg/ml (about 31.25 μM) and 1 μl aliquots are kept in −80° C. • 2. 1 μl aliquot is diluted to 625 nM by adding 49 μl of assay buffer containing 0.1% BSA and gently mixed. • 3. 10 nM enzyme working stock is prepared by adding assay buffer containing 0.1% BSA. Substrate Preparation: • 1. Supplied substrate (Ac-IETD-AFC) is reconstituted by adding DMSO to make 10 mM stock, aliquoted and stored in −80° C. • 2. 4 mM substrate mid stock is prepared by adding DMSO. • 3. Substrate working stock i.e. 800 μM is prepared by adding assay buffer. Assay Protocol: • 1. 10 μl of serially diluted Compound working stock (start dose 40 μM) is added from assay ready plate to assay plate according to the plate map. • 2. Positive control (40 μM of standard inhibitor) and negative control (4% DMSO buffer) are added to the respective wells. • 3. 20 μl of Enzyme working stock is added to assay plate and gently mixed. • 4. The plate is incubated at 22° C. for 30 mins and spun at 130 g for 1 minute. • 5. After incubation, 10 μl of Substrate working stock is added to respective wells and mixed (Assay plate is maintained in dark after substrate addition). • 6. The plate is incubated at 22° C. for 60 mins and spun at 130 g for 1 minute. • 7. Fluorescence read (RFU) (Ex: 400 nm/Em: 505 nm) is taken after 60 mins in EnVision Multimode plate reader. Final Assay Concentration:
Data Analysis: • 1. The RFU read is analyzed to calculate percent inhibition by normalizing with positive and negative controls taken as 100% and 0% effect respectively in Microsoft excel. • 2. Graph is generated by putting the analyzed data in GraphPad prism 5.0 software to get IC50 value for each compound.

Sequence of Granzyme B (human lymphocytes) (P10144 21-247): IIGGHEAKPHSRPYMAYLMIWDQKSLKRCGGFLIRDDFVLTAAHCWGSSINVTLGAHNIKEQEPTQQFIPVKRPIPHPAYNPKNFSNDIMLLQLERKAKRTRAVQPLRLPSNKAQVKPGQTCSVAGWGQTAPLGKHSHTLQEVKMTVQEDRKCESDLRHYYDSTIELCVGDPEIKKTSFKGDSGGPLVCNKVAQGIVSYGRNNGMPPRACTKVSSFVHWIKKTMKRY

Structure (SMILES)	IC50 [nM]
CC(=O)N[C@H](C(=O)N[C@H]1CCc2cccc3c2N(C1=O)[C@H](C(=O)NCc1c[nH]nn1)C3)c1ccccc1 [Compound C031, (2S,5S)-5-((S)-2-Acetylamino-2-phenyl-acetylamino)-4-oxo-1,2,4,5,6,7-hexahydro-azepino[3,2,1-hi]indole-2-carboxylic acid (1H-[1,2,3]triazol-4-ylmethyl)-amide]	1000 to 5000
O=C(N[C@H](C(=O)N[C@H]1CCc2cccc3c2N(C1=O)[C@H](C(=O)NCc1c[nH]nn1)C3)C1CCC1)c1ccccc1 [Compound C084, (2S,5S)-5-((S)-2-Benzoylamino-2-cyclobutyl-acetylamino)-4-oxo-1,2,4,5,6,7-hexahydro-azepino[3,2,1-hi]indole-2-carboxylic acid (1H-[1,2,3]triazol-4-ylmethyl)-amide]	1 to 300
Cc1ccccc1C(=O)N[C@H](C(=O)N[C@H]1CCc2cccc3c2N(C1=O)[C@H](C(=O)NCc1c[nH]nn1)C3)C(C)C [Compound C050, (2S,5S)-5-[(S)-3-Methyl-2-(2-methyl-benzoylamino)-butyrylamino]-4-oxo-1,2,4,5,6,7-hexahydro-azepino[3,2,1-hi]indole-2-carboxylic acid (1H-[1,2,3]triazol-4-ylmethyl)-amide]	1 to 300
CC[C@H](C)[C@H](NC(=O)COCCF)C(=O)N[C@H]1CNc2cccc3c2N(C1=O)[C@H](C(=O)NCc1c[nH]nn1)C3 [Compound C143, (3S,6S)-3-{(2S,3S)-2-[2-(2-Fluoro-ethoxy)-acetylamino]-3-methyl-pentanoylamino}-4-oxo-1,2,3,4,6,7-hexahydro-[1,4]diazepino[3,2,1-hi]indole-6-carboxylic acid (1H-[1,2,3]triazol-4-ylmethyl)-amide]	1 to 300
CC(=O)N[C@H](C(=O)N[C@H]1COc2cccc3c2N(C1=O)[C@H](C(=O)NCc1c[nH]nn1)C3)C(C)C [Compound C101, (1S,8S)-8-((S)-2-Acetylamino-3-methyl-butyrylamino)-9-oxo-1,2,8,9-tetrahydro-7H-6-oxa-9a-aza-benzo[cd]azulene-1-carboxylic acid (1H-[1,2,3]triazol-4-ylmethyl)-amide]	1 to 300
CCC(CC)[C@H](NC(=O)c1ccccc1)C(=O)N[C@H]1CCc2cccc3c2N(C1=O)[C@H](C(=O)NCc1c[nH]nn1)C3 [Compound C073, (2S,5S)-5-((S)-2-Benzoylamino-3-ethyl-pentanoylamino)-4-oxo-1,2,4,5,6,7-hexahydro-azepino[3,2,1-hi]indole-2-carboxylic acid (1H-[1,2,3]triazol-4-ylmethyl)-amide]	301 to 1000
CC(=O)N[C@H](C(=O)N[C@H]1CCc2cccc3c2N(C1=O)[C@H](C(=O)N[C@@H](C)C(=O)O)C3)C(C)C [Compound C089, (S)-2-{[(2S,5S)-5-((S)-2-Acetylamino-3-methyl-butyrylamino)-4-oxo-1,2,4,5,6,7-hexahydro-azepino[3,2,1-hi]indole-2-carbonyl]-amino}-propionicacid]	> 5000
COC(=O)[C@H](CO)NC(=O)[C@@H]1Cc2cccc3c2N1C(=O)[C@@H](NC(=O)[C@@H](NC(C)=O)C(C)C)CC3 [Compound C091, (S)-2-{[(2S,5S)-5-((S)-2-Acetylamino-3-methyl-butyrylamino)-4-oxo-1,2,4,5,6,7-hexahydro-azepino[3,2,1-hi]indole-2-carbonyl]-amino}-3-hydroxy-propionic acid methyl ester]	> 5000
N[C@H]1CCc2cccc3c2N(C1=O)[C@H](C(=O)NCc1c[nH]nn1)C3 [Compound C147, (2S,5S)-5-Amino-4-oxo-1,2,4,5,6,7-hexahydro-azepino[3,2,1-hi]indole-2-carboxylic acid (1H-[1,2,3]triazol-4-ylmethyl)-amide]	> 5000
CC([C@H](NC(=O)c1ccccc1)C(=O)N[C@H]1CCc2cccc3c2N(C1=O)[C@H](C(=O)NCc1c[nH]nn1)C3)C(F)(F)F (stereo partly drawn) [Compound C055, (2S,5S)-5-((S)-2-Benzoylamino-4,4,4-trifluoro-3-methyl-butyrylamino)-4-oxo-1,2,4,5,6,7-hexahydro-azepino[3,2,1-hi]indole-2-carboxylic acid (1H-[1,2,3]triazol-4-ylmethyl)-amide]	1 to 300
CC(C)(NC(=O)Cc1csc2ccccc12)C(=O)N[C@H]1CCc2cccc3c2N(C1=O)[C@H](C(=O)NCc1c[nH]nn1)C3 [Compound C044, (2S,5S)-5-[2-(2-Benzo[b]thiophen-3-yl-acetylamino)-2-methyl-propionylamino]-4-oxo-1,2,4,5,6,7-hexahydro-azepino[3,2,1-hi]indole-2-carboxylic acid (1H-[1,2,3]triazol-4-ylmethyl)-amide]	> 5000
O=C(Cc1csc2ccccc12)N[C@H](C(=O)N[C@H]1CCc2cccc3c2N(C1=O)[C@H](C(=O)NCc1c[nH]nn1)C3)c1ccccc1 [Compound C009, (2S,5S)-5-[(S)-2-(2-Benzo[b]thiophen-3-yl-acetylamino)-2-phenyl-acetylamino]-4-oxo-1,2,4,5,6,7-hexahydro-azepino[3,2,1-hi]indole-2-carboxylic acid (1H-[1,2,3]triazol-4-ylmethyl)-amide]	> 5000
CCC(CC)[C@H](NC(=O)Cc1csc2ccccc12)C(=O)N[C@H]1CCc2cccc3c2N(C1=O)[C@H](C(=O)NCc1c[nH]nn1)C3 [Compound C072, (2S,5S)-5-[(S)-2-(2-Benzo[b]thiophen-3-yl-acetylamino)-3-ethyl-pentanoylamino]-4-oxo-1,2,4,5,6,7-hexahydro-azepino[3,2,1-hi]indole-2-carboxylic acid (1H-[1,2,3]triazol-4-ylmethyl)-amide]	301 to 1000
CC(=O)N[C@@H](CCC(=O)O)C(=O)N[C@H]1CCc2cccc3c2N(C1=O)[C@H](C(=O)NCc1c[nH]nn1)C3 [Compound C030, (S)-4-Acetylamino-4-{(2S,5S)-4-oxo-2-[(1H-[1,2,3]triazol-4-ylmethyl)-carbamoyl]-1,2,4,5,6,7-hexahydro-azepino[3,2,1-hi]indol-5-ylcarbamoyl}-butyric acid]	> 5000
O=C(Cc1ccccc1)N[C@@H](Cc1ccc(O)cc1)C(=O)N[C@H]1CCc2cccc3c2N(C1=O)[C@H](C(=O)NCc1c[nH]nn1)C3 [Compound C021, (2S,5S)-5-[(S)-3-(4-Hydroxy-phenyl)-2-phenylacetylamino-propionylamino]-4-oxo-1,2,4,5,6,7-hexahydro-azepino[3,2,1-hi]indole-2-carboxylic acid (1H-[1,2,3]triazol-4-ylmethyl)-amide]	1000 to 5000
O=C(O)CC[C@H](NC(=O)Cc1ccccc1)C(=O)N[C@H]1CCc2cccc3c2N(C1=O)[C@H](C(=O)NCc1c[nH]nn1)C3 [Compound C019, (S)-4-{(2S,5S)-4-Oxo-2-[(1H-[1,2,3]triazol-4-ylmethyl)-carbamoyl]-1,2,4,5,6,7-hexahydro-azepino[3,2,1-hi]indol-5-ylcarbamoyl}-4-phenylacetylamino-butyric acid]	> 5000
CC[C@H](C)[C@H](NC(=O)Cc1cc2ccccc2[nH]1)C(=O)N[C@H]1CCc2cccc3c2N(C1=O)[C@H](C(=O)NCc1c[nH]nn1)C3 [Compound C161, (2S,5S)-5-[(2S,3S)-2-(2-1H-Indol-2-yl-acetylamino)-3-methyl-pentanoylamino]-4-oxo-1,2,4,5,6,7-hexahydro-azepino[3,2,1-hi]indole-2-carboxylicacid (1H-[1,2,3]triazol-4-ylmethyl)-amide]	1 to 300
